pIC50, pKi: −log10 of the molar value. Read-outs that look alike come from different tables or passages of the source.

The source of these data is patent US8569336B2, “Compounds for the treatment of inflammatory disorders” (priority 2008, dated 2013).

Assay [1] deals with T1, purified catalytic domain of recombinant human TACE (rhTACEc) (Homo sapiens, UniProt P78536, N452Q/S266A).
T1 construct: 6xHis (C); made in house; host or cells: baculovirus/Hi5 insect cells
The assay can be described thus: TACE kinetic assay: cleavage of internally quenched peptide substrate TNF-FRET 2 (Ki). The following applies: TNF-FRET 2 substrate. Type of assay: biochemical.

Assay [2] has as its system TNF-α production from human whole blood. The assay can be described thus: Inhibition of TNF-α production from human whole blood (hWBA), LPS stimulated, ELISA. Type of assay: cell-based. The following applies: 3.5 h, human whole blood diluted 1:1, LPS stimulated, 3.5 h, TNF-α by ELISA, read-out: hWBA (IC50). (In general: ELISA stands for enzyme-linked immunosorbent assay.)

T1 sequence (P78536 215-477 S266A/N452Q): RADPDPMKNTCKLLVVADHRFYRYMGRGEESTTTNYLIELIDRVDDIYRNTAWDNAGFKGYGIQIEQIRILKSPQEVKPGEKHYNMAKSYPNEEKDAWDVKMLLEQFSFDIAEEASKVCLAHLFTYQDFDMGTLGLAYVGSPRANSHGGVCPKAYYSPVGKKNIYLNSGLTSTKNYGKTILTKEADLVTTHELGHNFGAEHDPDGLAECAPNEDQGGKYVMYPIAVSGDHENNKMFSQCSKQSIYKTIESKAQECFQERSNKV

For the compound `COc1ccc2c(c1)C(=O)N(C[C@@]1(c3cc4nc(-c5nnn[nH]5)ccc4o3)NC(=O)NC1=O)C2` [Compound 2167], the pKi (commonly the Ki on a negative log10 scale, so that one unit is a factor of ten) in assay [1] (Ki) is 9.45. In assay [2] (Homo sapiens), the negative-log IC50 (pIC50) (usually the IC50 on a negative log10 scale, so that one unit is a factor of ten) was 6.54.
As for `COc1ccc2c(c1)C(=O)N(C[C@@]1(c3cc4nc(N5CCC(O)CC5)ccc4o3)NC(=O)NC1=O)C2` [Compound 2172], in assay [1] (read-out: Ki), the pKi is 9.24. Further, the pIC50 in assay [2] (Homo sapiens) is 6.68.
`COc1ccc2c(c1)C(=O)N(C[C@@]1(c3ccc(-c4ccc5c(c4)CN(CC4(C)NC(=O)NC4=O)C5=O)cc3)NC(=O)NC1=O)C2` (stereo partly drawn) [Compound 2174]: in assay [1] (read-out: Ki), the pKi was 8.73. The pIC50 in assay [2] (Homo sapiens) was 6.21.
For the compound `COc1ccc2c(c1)C(=O)N(C[C@@]1(c3ccc(-c4ccc(C5(CN)NC(=O)NC5=O)cc4)cc3)NC(=O)NC1=O)C2` (stereo partly drawn) [Compound 2175], in assay [1] (read-out: Ki), the pKi was 8.68. Also, the negative logarithm of the IC50 (pIC50) in assay [2] (Homo sapiens) was 5.75.
`COc1ccc2c(c1)C(=O)N(C[C@@]1(c3cc4cc(CN(C)C)ccc4o3)NC(=O)NC1=O)C2` [Compound 2176]: the pKi in assay [1] (read-out: Ki) was 9.57. The pIC50 in assay [2] (Homo sapiens) was 5.98.
Taken in the same sequence, the figures for `COc1ccc2c(c1)C(=O)N(C[C@@]1(c3cc4cc(CO)ccc4o3)NC(=O)NC1=O)C2` [Compound 2178] were 9.26 and 6.29.
`COc1ccc2c(c1)C(=O)N(C[C@@]1(c3cc4cc(CNCCN)ccc4o3)NC(=O)NC1=O)C2` [Compound 2179]: in assay [1] (read-out: Ki), the pKi is 9.15. In addition, the negative logarithm of the IC50 (pIC50) in assay [2] (Homo sapiens) was 6.42.
On to `COc1ccc2c(c1)C(=O)N(C[C@@]1(c3cc4cc(CNC5CCCCC5)ccc4o3)NC(=O)NC1=O)C2` [Compound 2180], for which the pKi in assay [1] (read-out: Ki) was 9.35. The pIC50 in assay [2] (Homo sapiens) is 6.21.
Taken in the same sequence, the figures for `COc1ccc2c(c1)C(=O)N(C[C@@]1(c3cc4cc(CNc5ccccn5)ccc4o3)NC(=O)NC1=O)C2` [Compound 2181] were 9.46 and 5.78.
Take `COc1ccc2c(c1)C(=O)N(C[C@@]1(c3cc4cc(CN)ccc4o3)NC(=O)NC1=O)C2` [Compound 2182]: in assay [1] (read-out: Ki), the pKi was 9.10. Further, in assay [2] (Homo sapiens), the pIC50 is 6.27.
Taken in the same sequence, the figures for `COc1ccc2c(c1)C(=O)N(C[C@@]1(c3cc4cc(CNCC5CCNCC5)ccc4o3)NC(=O)NC1=O)C2` [Compound 2183] were 8.99 and 6.28.
For the compound `COc1ccc2c(c1)C(=O)N(C[C@@]1(c3cc4cc(-c5nnc[nH]5)ccc4o3)NC(=O)NC1=O)C2` [Compound 2184], in assay [1] (read-out: Ki), the negative logarithm of the Ki (pKi) is 9.45. In addition, in assay [2] (Homo sapiens), the pIC50 is 6.46.
`CNCc1ccc2oc([C@]3(CN4Cc5ccc(OC)cc5C4=O)NC(=O)NC3=O)cc2c1` [Compound 2185]: the pKi in assay [1] (read-out: Ki) is 8.40. For the same compound, the pIC50 in assay [2] (Homo sapiens) is 5.98.
Taken in the same sequence, the figures for `COc1ccc2c(c1)C(=O)N(C[C@@]1(c3cc4cc(CN5CCNCC5)ccc4o3)NC(=O)NC1=O)C2` [Compound 2186] were 9.27 and 6.46.
For `COc1ccc2c(c1)C(=O)N(C[C@@]1(c3cc4ccc(OC)cc4o3)NC(=O)NC1=O)C2` [Compound 2187], in assay [1] (read-out: Ki), the pKi was 9.00. In assay [2] (Homo sapiens), the pIC50 is 5.40.
Taken in the same sequence, the figures for `O=C1NC(=O)[C@](CN2Cc3ccc(O)cc3C2=O)(c2cc3cnccc3o2)N1` [Compound 2188] were 8.65 and 5.52.
Taken in the same sequence, the figures for `COc1ccc2c(c1)C(=O)N(C[C@@]1(c3cc4cc(Br)ccc4o3)NC(=O)NC1=O)C2` [Compound 2192] were 9.31 and 5.48.
For `CCNc1nnc(-c2ccc3cc([C@]4(CN5Cc6ccc(OC)cc6C5=O)NC(=O)NC4=O)oc3c2)o1` [Compound 2193], the pKi in assay [1] (read-out: Ki) was 9.60. In assay [2] (Homo sapiens), the pIC50 is 6.77.
Taken in the same sequence, the figures for `COc1ccc2c(c1)C(=O)N(C[C@@]1(c3cc4cc(-c5ccncc5)ccc4o3)NC(=O)NC1=O)C2` [Compound 2194] were 9.13 and 5.93.
On to `COc1ccc2c(c1)C(=O)N(C[C@@]1(c3cc4cc(-c5ccc(N(C)C)nc5)ccc4o3)NC(=O)NC1=O)C2` [Compound 2197], for which the negative logarithm of the Ki (pKi) in assay [1] (read-out: Ki) is 9.07. In assay [2], the negative logarithm of the IC50 (pIC50) was 5.57.
Take `COc1ccc2c(c1)C(=O)N(C[C@@]1(c3cc4cc(-c5cnccc5OC)ccc4o3)NC(=O)NC1=O)C2` [Compound 2198]: the pKi in assay [1] (read-out: Ki) was 9.20. Also, in assay [2] (Homo sapiens), the pIC50 is 5.72.
Regarding `COc1ccc2c(c1)C(=O)N(C[C@@]1(c3cc4cc(-c5cnccc5O)ccc4o3)NC(=O)NC1=O)C2` [Compound 2199], the pKi in assay [1] (read-out: Ki) is 8.71. Also, in assay [2] (Homo sapiens), the pIC50 was 5.13.
With `COc1ccc2c(c1)C(=O)N(C[C@@]1(c3cc4cc(-c5cn[nH]c5)ccc4o3)NC(=O)NC1=O)C2` [Compound 2201], in assay [1] (read-out: Ki), the pKi is 9.46. In assay [2] (Homo sapiens), the pIC50 was 6.53.
Taken in the same sequence, the figures for `COc1ccc2c(c1)C(=O)N(C[C@@]1(c3cc4cc(-c5ccc(N)nc5)ccc4o3)NC(=O)NC1=O)C2` [Compound 2202] were 9.31 and 6.15.
Taken in the same sequence, the figures for `COc1ccc2c(c1)C(=O)N(C[C@@]1(c3ccc(-c4ccc(C5(C)NC(=O)NC5=O)cc4)cc3)NC(=O)NC1=O)C2` (stereo partly drawn) [Compound 2205] were 9.18 and at most 6.00.
Taken in the same sequence, the figures for `COc1ccc2c(c1)C(=O)N(C[C@@]1(c3ccc(-c4ccc(C5(C)NC(=O)NC5=O)nc4)cc3)NC(=O)NC1=O)C2` (stereo partly drawn) [Compound 2206] were 9.09 and 5.75.
In the case of `CCC1(c2ccc3oc([C@]4(CN5Cc6ccc(OC)cc6C5=O)NC(=O)NC4=O)cc3c2)NC(=O)NC1=O` (stereo partly drawn) [Compound 2208], the negative logarithm of the Ki (pKi) in assay [1] (read-out: Ki) was 9.60. Also, the pIC50 in assay [2] (Homo sapiens) is 6.66.
For `COc1ccc2c(c1)C(=O)N(C[C@@]1(c3cc4cc(CC(N)=O)ccc4o3)NC(=O)NC1=O)C2` [Compound 2209], the negative-log Ki (pKi) in assay [1] (read-out: Ki) was 8.60. Further, in assay [2] (Homo sapiens), the pIC50 was 6.27.
As for `COc1ccc2c(c1)C(=O)N(C[C@@]1(c3cc4cc(C5(C)NC(=O)NC5=O)cc(C)c4o3)NC(=O)NC1=O)C2` (stereo partly drawn) [Compound 2211], in assay [1] (read-out: Ki), the pKi was 9.67. The pIC50 in assay [2] (Homo sapiens) was 5.81.
Taken in the same sequence, the figures for `COc1ccc2c(c1)C(=O)N(C[C@@]1(c3cc4cc(C5(C)CNC(=O)N5)cc(C)c4o3)NC(=O)NC1=O)C2` (stereo partly drawn) [Compound 2212] were 10.02 and 5.54.
Taken in the same sequence, the figures for `COc1ccc2c(c1)C(=O)N(C[C@@]1(c3cc4cc(-c5c(C)nn(C)c5C)ccc4o3)NC(=O)NC1=O)C2` [Compound 2213] were 9.39 and 5.82.
As to `COc1ccc2c(c1)C(=O)N(C[C@@]1(c3cc4cc(C5CNC(=O)C5)ccc4o3)NC(=O)NC1=O)C2` (stereo partly drawn) [Compound 2215], the negative-log Ki (pKi) in assay [1] (Ki) was 9.28. The pIC50 in assay [2] (Homo sapiens) is 6.42.
In the case of `COc1ccc2c(c1F)C(=O)N(C[C@@]1(c3cc4c(Cl)nccc4o3)NC(=O)NC1=O)C2` [Compound 2216], the pKi in assay [1] (read-out: Ki) was 9.39. Moreover, in assay [2] (Homo sapiens), the pIC50 was 6.51.
Taken in the same sequence, the figures for `COc1ccc2c(c1F)C(=O)N(C[C@@]1(c3cc4cnc(Cl)cc4o3)NC(=O)NC1=O)C2` [Compound 2217] were 9.22 and 6.07.
With `COc1ccc2c(c1F)C(=O)N(C[C@@]1(c3cc4nc(-c5cccnc5)ccc4o3)NC(=O)NC1=O)C2` [Compound 2218], the pKi in assay [1] (read-out: Ki) was 9.63. For the same compound, the pIC50 in assay [2] (Homo sapiens) was 6.00.
Taken in the same sequence, the figures for `COc1ccc2c(c1)C(=O)N(C[C@@]1(c3cc4cc(NC(N)=O)ccc4o3)NC(=O)NC1=O)C2` [Compound 2221] were 10.00 and 6.85.
For the compound `COc1ccc2c(c1)C(=O)N(C[C@@]1(c3cc4cc(NS(C)(=O)=O)ccc4o3)NC(=O)NC1=O)C2` [Compound 2222], the pKi in assay [1] (read-out: Ki) was 9.15. Moreover, in assay [2] (Homo sapiens), the pIC50 is 6.47.
For `COc1ccc2c(c1)C(=O)N(CC1(c3cc4cc(-c5cc(O)[nH]n5)ccc4o3)NC(=O)NC1=O)C2` (stereo not drawn) [Compound 2223], the pKi in assay [1] (read-out: Ki) was 8.91. Moreover, in assay [2] (Homo sapiens), the pIC50 was 6.62.
`COc1ccc2c(c1)C(=O)N(CC1(c3cc4cc(-c5cc(=O)[nH]c(N)n5)ccc4o3)NC(=O)NC1=O)C2` (stereo not drawn) [Compound 2224]: the pKi in assay [1] (Ki) was 9.50. Besides, in assay [2] (Homo sapiens), the negative logarithm of the IC50 (pIC50) was 6.86.
Turning to `COc1ccc2c(c1)C(=O)N(C[C@@]1(c3cc4cc(N5C(=O)CNC5=O)ccc4o3)NC(=O)NC1=O)C2` [Compound 2225], in assay [1] (read-out: Ki), the pKi is 9.25. Further, the pIC50 in assay [2] (Homo sapiens) is 6.17.
Taken in the same sequence, the figures for `COc1ccc2c(c1)C(=O)N(C[C@@]1(c3cc4cc(N5CC(=O)NS5(=O)=O)ccc4o3)NC(=O)NC1=O)C2` [Compound 2230] were 9.11 and 5.36.
Taken in the same sequence, the figures for `COc1ccc2c(c1)C(=O)N(C[C@@]1(c3cc4c(-c5ccccc5F)nccc4o3)NC(=O)NC1=O)C2` [Compound 2237] were 9.45 and 5.94.
Turning to `COc1ccc2c(c1)C(=O)N(C[C@@]1(c3cc4cc(-c5cccc(O)c5)ncc4o3)NC(=O)NC1=O)C2` [Compound 2242], the pKi in assay [1] (read-out: Ki) is 9.25. Also, in assay [2] (Homo sapiens), the pIC50 is 5.47.
Taken in the same sequence, the figures for `COc1ccc2c(c1)C(=O)N(C[C@@]1(c3cc4cc(-c5cncc(O)c5)ncc4o3)NC(=O)NC1=O)C2` [Compound 2244] were 9.46 and 6.44.
Taken in the same sequence, the figures for `COc1ccc2c(c1)C(=O)N(C[C@@]1(c3cc4cc(-c5cc(N)n[nH]5)ccc4o3)NC(=O)NC1=O)C2` [Compound 2246] were 9.28 and 6.96.
`COc1ccc2c(c1)C(=O)N(C[C@@]1(c3cc4c(NCc5ccccc5)ccnc4o3)NC(=O)NC1=O)C2` [Compound 2248]: in assay [1] (Ki), the pKi was 8.79. For the same compound, in assay [2] (Homo sapiens), the pIC50 is 6.63.
In the case of `COc1ccc2c(c1)C(=O)N(C[C@@]1(c3cc4cnc(-c5c(C)nn(C)c5C)cc4o3)NC(=O)NC1=O)C2` [Compound 2251], the pKi in assay [1] (read-out: Ki) is 9.13. Also, the pIC50 in assay [2] (Homo sapiens) is 5.60.
Taken in the same sequence, the figures for `COc1ccc2c(c1)C(=O)N(C[C@@]1(c3cc4cnc(N5CCCC5=O)cc4o3)NC(=O)NC1=O)C2` [Compound 2253] were 9.01 and 5.57.
